In general, melting point refers to the temperature, or range, at which the solid turns liquid.

One data set concerns Phytophthora infestans. Kind of data set: whole plant or invertebrate. It counts as in vivo. To be noted: in Solanum lycopersicum, foliar, read-out: inhibit fungal infestation (percent disease control compared to untreated).
For a further data set, the system named is Plasmopara viticola. Kind of data set: Plasmopara viticola / grape / leaf disc preventative. It counts as in vivo. To be noted: foliar, grape vine leaf disks, inoculated 1 day after application, assessed 6-8 days after application, read-out: inhibit fungal infestation (percent disease control compared to untreated). How it is done: (§1) Leaf disks of various plant species (diameter 14 mm) are cut from plants grown in the greenhouse. The cut leaf disks are placed in multiwell plates (24-well format) onto water agar. Immediately after cutting the leaf disks are sprayed with a test solution.
(§2) Compounds to be tested are prepared as DMSO solutions (max. 10 mg/ml). Just before spraying the solutions are diluted to the appropriate concentrations with 0.025% Tween20. After drying, the leaf disks are inoculated with a spore suspension of the appropriate pathogenic fungus.
(§3) After an incubation time of 3-7 days after inoculation at defined conditions (temp, rH, light, etc.) according to the respective test system, the activity of the test compound is assessed as antifungal activity.
Grape vine leaf disks are placed on water agar in multiwell plates (24-well format) and sprayed with the formulated test compound diluted in water. The leaf disks are inoculated with a spore suspension of the fungus 1 day after application. The inoculated leaf disks are incubated at 19° C. and 80% rh under a light regime of 12 h light/12 h darkness in a climate cabinet and the activity of a compound is assessed as percent disease control compared to untreated when an appropriate level of disease damage appears in untreated check leaf disks (6-8 days after application).

Data set [1] concerns Blumeria graminis f. sp. tritici (Erysiphe graminis f. sp. tritici). Kind of data set: Blumeria graminis f. sp. tritici / wheat / leaf disc preventative (powdery mildew on wheat). It counts as in vivo. To be noted: foliar, wheat leaf segments cv. Kanzler, inoculated 1 day after application, assessed 6-8 days after application, read-out: inhibit fungal infestation (percent disease control compared to untreated). How it is done: as §1, §2, §3
Wheat leaf segments cv. Kanzler are placed on agar in a multiwell plate (24-well format) and sprayed with the formulated test compound diluted in water. The leaf disks are inoculated by shaking powdery mildew infected plants above the test plates 1 day after application. The inoculated leaf disks are incubated at 20° C. and 60% rh under a light regime of 24 h darkness followed by 12 h light/12 h darkness in a climate chamber and the activity of a compound is assessed as percent disease control compared to untreated when an appropriate level of disease damage appears on untreated check leaf segments (6-8 days after application).

The test system of data set [2] is Phaeosphaeria nodorum (Septoria nodorum). Kind of data set: Phaeosphaeria nodorum (Septoria nodorum) / wheat / leaf disc preventative (glume blotch). It counts as in vivo. To be noted: Parastagonospora nodorum, foliar, wheat leaf segments cv. Kanzler, inoculated 2 days after application, assessed 5-7 days after application, read-out: inhibit fungal infestation (percent disease control compared to untreated). How it is done: as §1, §2, §3
Wheat leaf segments cv. Kanzler are placed on agar in a multiwell plate (24-well format) and sprayed with the formulated test compound diluted in water. The leaf disks are inoculated with a spore suspension of the fungus 2 days after application. The inoculated test leaf disks are incubated at 20° C. and 75% rh under a light regime of 12 h light/12 h darkness in a climate cabinet and the activity of a compound is assessed as percent disease control compared to untreated when an appropriate level of disease damage appears in untreated check leaf disks (5-7 days after application).

The next data set concerns Pythium ultimum. Kind of data set: Pythium ultimum / liquid culture (seedling damping off). The data set is classed as cell-based. To be noted: Globisporangium ultimum, liquid culture in PDB, 24° C., 2-3 days after application, read-out: inhibit fungal infestation (inhibition of growth determined photometrically). How it is done:
Mycelia fragments or conidia suspensions of a fungus, prepared either freshly from liquid cultures of the fungus or from cryogenic storage, are directly mixed into nutrient broth. DMSO solutions of the test compound (max. 10 mg/ml) is diluted with 0.025% Tween20 by factor 50 and 10 μl of this solution is pipetted into a microtiter plate (96-well format) and the nutrient broth containing the fungal spores/mycelia fragments is then added to give an end concentration of the tested compound. The test plates are incubated at 24° C. and 96% rH in the dark. The inhibition of fungal growth is determined photometrically after 2-6 days and antifungal activity is calculated.
Mycelia fragments and oospores of a newly grown liquid culture of the fungus are directly mixed into nutrient broth (PDB potato dextrose broth). After placing a (DMSO) solution of test compound into a microtiter plate (96-well format), the nutrient broth containing the fungal mycelia/spore mixture is added. The test plates are incubated at 24° C. and the inhibition of growth is determined photometrically 2-3 days after application.

`C=Cc1cnc2c(C)cc(OC(SC)C(=O)NC(C)(C)/C=N/OC)cc2c1` (stereo not drawn) [Compound 35, N-(2-Methoxyimino-1,1-dimethyl-ethyl)-2-methylsulfanyl-2-(8-methyl-3-vinyl-quinolin-6-yloxy)-acetamide] showed a melting point of 87 to 89 °C. The inhibition at 200 ppm with Phytophthora infestans was not below 80%. For the same molecule, the inhibition at 200 ppm in the data set with Plasmopara viticola is not below 80%. Further, in data set [1], the inhibition at 200 ppm is not below 80%. Moreover, the inhibition at 200 ppm in data set [2] was not below 80%. Further, in the data set on Pythium ultimum, the inhibition at 200 ppm was not below 80%.

As to `C=Cc1cnc2ccc(OC(SC)C(=O)NC(C)(C)/C=N/OC)cc2c1` (stereo not drawn) [Compound 34, N-(2-Methoxyimino-1,1-dimethyl-ethyl)-2-methylsulfanyl-2-(3-vinyl-quinolin-6-yloxy)-acetamide], the melting point lay within 114 to 116 °C. Also, the inhibition at 200 ppm in the data set with Phytophthora infestans was not below 80%. The inhibition at 200 ppm in the data set with Plasmopara viticola is not below 80%. The inhibition at 200 ppm in data set [1] was not below 80%. Besides, the inhibition at 200 ppm in data set [2] is not below 80%. Also, the inhibition at 200 ppm with Pythium ultimum was not below 80%.

For `C#CC(C)(C)NC(=O)C(Oc1cc(C)c2ncc(CC)cc2c1)SC` (stereo not drawn) [Compound 18, N-(1,1-Dimethyl-prop-2-ynyl)-2-(3-ethyl-8-methyl-quinolin-6-yloxy)-2-methylsulfanyl-acetamide], the melting point lay within 92 to 93 °C. Also, the inhibition at 200 ppm in the data set with Phytophthora infestans is not below 80%. Also, the inhibition at 200 ppm in the data set on Plasmopara viticola is not below 80%. Also, the inhibition at 200 ppm in data set [1] was not below 80%. In addition, the inhibition at 200 ppm in data set [2] was not below 80%. For the same molecule, the inhibition at 200 ppm with Pythium ultimum was not below 80%.

`CO/N=C/C(C)(C)NC(=O)C(Oc1cc(C)c2ncc(C)cc2c1)SC` (stereo not drawn) [Compound 8, 2-(3,8-Dimethyl-quinolin-6-yloxy)-N-(2-methoxyimino-1,1-dimethyl-ethyl)-2-methylsulfanyl-acetamide]: the melting point lay in the range of 109 to 111 °C. In addition, the inhibition at 200 ppm with Phytophthora infestans is not below 80%. The inhibition at 200 ppm in the data set with Plasmopara viticola is not below 80%. The inhibition at 200 ppm in data set [1] is not below 80%. Further, the inhibition at 200 ppm in data set [2] is not below 80%. The inhibition at 200 ppm in the data set with Pythium ultimum is not below 80%.

The record behind these values is patent publication US20130096156A1 (priority 2010, published 2013).
